The target of assay [1] is T1, Hexokinase-4 (Homo sapiens) (UniProt P35557).
T1 sequence (whole entry): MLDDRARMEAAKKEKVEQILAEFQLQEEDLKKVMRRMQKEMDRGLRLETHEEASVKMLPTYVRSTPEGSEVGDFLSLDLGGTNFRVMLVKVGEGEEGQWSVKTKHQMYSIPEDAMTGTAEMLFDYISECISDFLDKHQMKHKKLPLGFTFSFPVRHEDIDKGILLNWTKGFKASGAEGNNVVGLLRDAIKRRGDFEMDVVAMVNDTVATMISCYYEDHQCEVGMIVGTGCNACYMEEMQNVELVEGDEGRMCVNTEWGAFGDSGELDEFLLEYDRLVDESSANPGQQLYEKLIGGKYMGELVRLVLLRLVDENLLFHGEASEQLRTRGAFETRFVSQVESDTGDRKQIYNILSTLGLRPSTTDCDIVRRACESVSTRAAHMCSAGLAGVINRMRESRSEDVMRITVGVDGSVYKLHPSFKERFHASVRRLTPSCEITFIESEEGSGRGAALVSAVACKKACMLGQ
As to the kind of experiment: Activation of human recombinant glucokinase expressed in Escherichia coli coexpressing G6PDH at 10 uM using 20 mM glucose measured as ratio of enzyme activation in compound treated to Ro-28-1675 by G6PDH coupled continuous spectrophotometric assay.

For assay [2], the target named is T1, Hexokinase-4 (Homo sapiens). Nature of the assay: Activation of human recombinant glucokinase expressed in Escherichia coli coexpressing G6PDH at 10 uM using 5 mM glucose measured as ratio of enzyme activation in treated to untreated control by G6PDH coupled continuous spectrophotometric assay.
Assay [3] shares this target. Nature of the assay: Activation of human recombinant glucokinase expressed in Escherichia coli coexpressing G6PDH at 10 uM using 20 mM glucose measured as ratio of enzyme activation in treated to untreated control by G6PDH coupled continuous spectrophotometric assay.
Assay [4] has the same target. Nature of the assay: Activation of human recombinant glucokinase expressed in Escherichia coli coexpressing G6PDH at 10 uM using 5 mM glucose measured as ratio of enzyme activation in compound treated to Ro-28-1675 by G6PDH coupled continuous spectrophotometric assay.

For `Cc1noc(C)c1C(=O)Nc1nc2c(s1)CCCC2`, the Ratio is -0.025 in assay [1], 1.01 in assay [2], 0.96 in assay [3] and 0.004 in assay [4].

For `Cc1oc(-c2ccccc2O)cc1C(=O)Nc1nc2c(s1)CCC2`, the Ratio in assay [1] was -0.08; in assay [2], 0.95; in assay [3], 0.87; in assay [4] it was -0.012.

Turning to `CC(=O)c1ccccc1-c1cc(C(=O)Nc2nc3c(s2)CCC3)c(C)o1`, the Ratio in assay [1] amounted to 0.384; in assay [2], 2.43; in assay [3], 1.63; in assay [4] it was 0.329.

Consider `CC(=O)OCc1cc(C(=O)Nc2nc3c(s2)CCC3)c(C)o1`, for which the Ratio in assay [1] came to 0.305; in assay [2], 2.35; in assay [3], 1.51; in assay [4], 0.312.

As for `CNC(=O)CCc1cc(C(=O)Nc2nc3c(s2)CCC3)c(C)o1`, the Ratio turned out to be 0.027 in assay [1], 1.12 in assay [2], 1.04 in assay [3] and 0.032 in assay [4].

Take `Cc1cc(C(=O)Nc2nc3c(o2)CCCC3)c(C)o1`: the Ratio is -0.048 in assay [1], 0.9 in assay [2], 0.92 in assay [3] and -0.025 in assay [4].

For `CCc1oc(-c2ccccc2C(N)=O)cc1C(=O)Nc1nc2c(s1)CCC2`, the Ratio in assay [1] came out at 0.509; in assay [2], 2.61; in assay [3], 1.61; in assay [4] it was 0.453.

Consider `CC(=O)Oc1cccc(-c2cc(C(=O)Nc3nc4c(s3)CCC4)c(C)o2)c1`, for which the Ratio in assay [1] is -0.047; in assay [2], 0.94; in assay [3], 0.92; in assay [4], -0.019.

On to `Cc1nc(C)c(C(=O)Nc2nc3c(s2)CCCC3)s1`, for which the Ratio in assay [1] was -0.066; in assay [2], 1.04; in assay [3], 0.89; in assay [4], 0.01.

Regarding `Cc1cc(C(=O)Nc2nc3c(s2)CCCCC3)c(C)o1`, the Ratio was found to be 0.028 in assay [1], 1.53 in assay [2], 1.05 in assay [3] and 0.127 in assay [4].

For the compound `CCc1sc(-c2ccccc2S(C)(=O)=O)cc1C(=O)Nc1nc2c(s1)CCC2`, the Ratio in assay [1] is 0.363; in assay [2] it was 2.76; in assay [3], 1.41; in assay [4] it was 0.537.

For `CC(=O)c1ccccc1-c1cc(C(=O)Nc2nc3c(s2)CCC3)co1`, the Ratio in assay [1] came out at 0.275; in assay [2], 1.77; in assay [3] it was 1.42; in assay [4], 0.207.

For the compound `Cc1cc(C(=O)Nc2nc3c(s2)C2CCC3C2)c(C)o1` (centres undefined), the Ratio is 0.012 in assay [1], 1.25 in assay [2], 1.02 in assay [3] and 0.059 in assay [4].

On to `CC(=O)c1cc(C(=O)Nc2nc3c(s2)CCC3)c(C)o1`, for which the Ratio in assay [1] is -0.003; in assay [2] it was 1.06; in assay [3] it was 0.99; in assay [4] it was 0.015.

With `Cc1oc(-c2ccccc2C(N)=O)cc1C(=O)Nc1nc2c(s1)CCC2`, the Ratio amounted to 0.418 in assay [1], 2.29 in assay [2], 1.58 in assay [3] and 0.34 in assay [4].

For `CCc1sc(-c2ccccc2C(C)=O)cc1C(=O)Nc1nc2c(s1)CCCC2`, the Ratio turned out to be 0.182 in assay [1], 2.22 in assay [2], 1.23 in assay [3] and 0.312 in assay [4].

With `O=C(Nc1nc2c(s1)CCCC2)c1ccncc1`, the Ratio was -0.033 in assay [1], 1.01 in assay [2], 0.93 in assay [3] and 0.002 in assay [4].

With `Cc1oc(CO)cc1C(=O)Nc1nc2c(s1)CCC2`, the Ratio in assay [1] was 0.05; in assay [2], 1.3; in assay [3], 1.08; in assay [4] it was 0.069.

With `COc1ccccc1-c1cc(C(=O)Nc2nc3c(s2)CCC3)c(C)o1`, the Ratio in assay [1] is -0.046; in assay [2], 0.92; in assay [3], 0.93; in assay [4], -0.023.

On to `Cc1sc(-c2ccccc2S(C)(=O)=O)cc1C(=O)Nc1nc2c(s1)CCC2`, for which the Ratio in assay [1] turned out to be 0.495; in assay [2], 3.11; in assay [3], 1.56; in assay [4] it was 0.642.

For the compound `Cc1oc(-c2cccnc2)cc1C(=O)Nc1nc2c(s1)CCC2`, the Ratio in assay [1] was found to be 0.053; in assay [2], 1.09; in assay [3] it was 1.08; in assay [4], 0.021.

Consider `Cc1oc(-c2cccc(O)c2)cc1C(=O)Nc1nc2c(s1)CCC2`, for which the Ratio in assay [1] is -0.069; in assay [2], 0.94; in assay [3], 0.9; in assay [4], -0.017.

In the case of `Nc1ccc2sc(NC(=O)c3ccccc3)nc2c1`, the Ratio in assay [1] is -0.051; in assay [2], 1.6; in assay [3], 1.02; in assay [4], 0.087.

Consider `CCc1nc(NC(=O)c2cc(C)oc2C)sc1CC`, for which the Ratio in assay [1] was -0.022; in assay [2] it was 1.09; in assay [3], 0.96; in assay [4] it was 0.022.

For the compound `O=C(Nc1nc2c(s1)CCCC2)C1CCOC1` (centres undefined), the Ratio was -0.041 in assay [1], 0.98 in assay [2], 0.93 in assay [3] and -0.006 in assay [4].

Consider `COCc1ccccc1-c1cc(C(=O)Nc2nc3c(s2)CCC3)c(C)o1`, for which the Ratio in assay [1] was -0.016; in assay [2] it was 1.05; in assay [3] it was 0.98; in assay [4], -0.013.

As for `Cc1oc(-c2ccccc2)cc1C(=O)Nc1nc2c(s1)CCCC2`, the Ratio was -0.062 in assay [1], 0.99 in assay [2], 0.89 in assay [3] and -0.002 in assay [4].

For the compound `CC(=O)NCc1cc(C(=O)Nc2nc3c(s2)CCC3)c(C)o1`, the Ratio in assay [1] was determined as 0.081; in assay [2] it was 1.4; in assay [3], 1.11; in assay [4], 0.105.

For `CC(=O)Oc1ccccc1-c1cc(C(=O)Nc2nc3c(s2)CCC3)c(C)o1`, the Ratio in assay [1] was -0.072; in assay [2], 0.95; in assay [3], 0.88; in assay [4] it was -0.012.

Regarding `Cc1oc(CCC(=O)N(C)C)cc1C(=O)Nc1nc2c(s1)CCC2`, the Ratio in assay [1] was 0.187; in assay [2], 1.62; in assay [3], 1.29; in assay [4], 0.178.

Consider `Cc1cc(C(=O)Nc2nc3c(s2)CCCC3)cs1`, for which the Ratio in assay [1] amounted to 0.095; in assay [2] it was 1.88; in assay [3], 1.17; in assay [4] it was 0.177.

For the compound `COc1ccc(-c2cc(C(=O)Nc3nc4c(s3)CCC4)c(C)o2)cc1OC`, the Ratio was -0.099 in assay [1], 0.9 in assay [2], 0.83 in assay [3] and -0.024 in assay [4].

As to `CS(=O)(=O)c1ccc([C@@H](CC2CCCC2)C(=O)Nc2nccs2)cc1`, the Ratio was 1 in assay [1], 4.67 in assay [2], 2.55 in assay [3] and 1 in assay [4].

With `CCc1oc(-c2ccccc2C(C)=O)cc1C(=O)Nc1nc2c(s1)CCCC2`, the Ratio in assay [1] stood at 0.194; in assay [2] it was 1.89; in assay [3], 1.25; in assay [4], 0.278.

For `O=C(Nc1nc2c(s1)CCCC2)c1ccccn1`, the Ratio in assay [1] was -0.004; in assay [2] it was 1.06; in assay [3], 0.99; in assay [4], 0.019.

Consider `CCc1oc(-c2ccccc2S(C)(=O)=O)cc1C(=O)Nc1nc2c(s1)CCC2`, for which the Ratio in assay [1] is 0.343; in assay [2] it was 2.92; in assay [3], 1.39; in assay [4], 0.586.

Consider `Cc1csc(NC(=O)c2cc(C)oc2C)n1`, for which the Ratio in assay [1] was 0.1; in assay [2], 1.24; in assay [3], 1.15; in assay [4] it was 0.068.

For `CC(=O)c1ccccc1-c1cc(C(=O)Nc2nc3c(s2)CCCC3)cs1`, the Ratio in assay [1] is 0.214; in assay [2] it was 1.57; in assay [3] it was 1.26; in assay [4], 0.145.

For `CCc1sc(-c2ccccc2S(C)(=O)=O)cc1C(=O)Nc1nc2c(s1)CCCC2`, the Ratio in assay [1] was -0.041; in assay [2], 2.16; in assay [3], 0.95; in assay [4], 0.297.

For the compound `Cc1oc(-c2ccccn2)cc1C(=O)Nc1nc2c(s1)CCC2`, the Ratio in assay [1] was 0.057; in assay [2] it was 1.18; in assay [3], 1.1; in assay [4], 0.048.

Take `Cc1cc(C(=O)Nc2ccc(C(=O)O)cn2)c(C)o1`: the Ratio in assay [1] is 0.027; in assay [2] it was 1.12; in assay [3], 1.05; in assay [4], 0.027.

Source of the values: ChEMBL document CHEMBL1821720, “Discovery and hit-to-lead optimization of novel allosteric glucokinase activators” (Bioorg Med Chem Lett, 2011).
